The values below come from patent publication US9555038B2, “Heterocycle-substituted tetracyclic compounds and methods of use thereof for the treatment of viral diseases” (Merck Sharp & Dohme Corp., priority 2013, dated 2017).

Test [1] relates to HCV replicon 1A. The test can be described thus: Cell-based HCV Replicon Assay A, replicon 1A. The method, then: (§1) To measure cell-based anti-HCV activity of compounds of the present invention, two complimentary assays were employed using various replicons. In the first assay (“Replicon Assay A”), replicon cells were seeded at 2000 cells/well in 384-well 384-well flat bottom tissue culture treated clear bottom plate (Corning 3707) in the presence of the test compound. Various concentrations of test compound, typically in 10 serial dilutions, were added to the assay mixture, with the starting concentration ranging from 333.3 nM to […]. The final concentration of DMSO was 0.5%. Fetal bovine serum was 5%, in the assay media. Cells were harvested on day 3 by removing media and washing the cells with a suitable wash buffer. The cells are lysed with the addition of 1× Qiagen lysis buffer (Cat #1062731). The replicon RNA level was measured using real time PCR (TaqMan® EZ RT-PCR, Applied Biosystems 403028) with the following primers and probes: […]
(§2) Cyclophilin RNA was used as endogenous control and was amplified in the same reaction as NS5B (multiplex PCR). The real-time RT-PCR reactions were run on ABI PRISM 7900HT Sequence Detection System using the following program: 50° C. for 2 minutes, 60° C. for 30 minutes, 95° C. for 5 minutes, 40 cycles of 94° C. for 20 sec, 55° C. for 1 minutes.
(§3) The amount of HCV replicon RNA per cell is quantified using a linear regression curve for a known nanogram (ng) amount of HCV replicon total RNA. This is established by plotting the Cycle Threshold values (Ct) from the Neo probe and primer set versus the log (ng) for each HCV replicon total RNA standard. The amount of HCV RNA for each replicon sample is calculated by taking the sample's Ct value, minus the line intercept, divided by the slope of the line. Similarly, the amount of Cyclophilin mRNA per cell is also quantified using a linear regression curve for a known nanogram (ng) amount of HCV replicon total RNA. Again, this is established by plotting the Cycle Threshold values (Ct) from the Cyclophilin probe and primer set versus the log (ng) for each HCV replicon total RNA standard.
(§4) Data was obtained for various compounds of the present invention using the methods described in the Example above, and is presented in the table immediately below. Data for replicons 1A, 1AY93H and 2B were obtained using Replicon Assay A and data for replicons 1AQ30D and 1B were obtained using Replicon Assay B.
In general terms: Replicon systems follow genome replication, usually without infectious particles.

For test [2], the system named is HCV replicon 1AY93H. As to the kind of experiment: Cell-based HCV Replicon Assay A, replicon 1AY93H. The method, then:
as §1, §2, §3, §4

For test [3], the system named is HCV replicon 2B. As to the kind of experiment: Cell-based HCV Replicon Assay A, replicon 2B. The method, then:
as §1, §2, §3, §4

Where [4] appears, read: read-out: 1A Y93H IC50, replicon 1AY93H.
[5] abbreviates: Hepatitis C virus, read-out: 2B IC50 (nM), replicon 2B.
[6] abbreviates: Hepatitis C virus, read-out: 1A Y93H IC50 (nM), replicon 1AY93H.

Read-outs that look alike come from different tables or passages of the source.

What is called IC50 is the midpoint of a concentration-inhibition curve. Consider `COC(=O)NC(C(=O)N1CCC[C@H]1c1ncc(-c2ccc3c(c2)cc2n3C(c3cnc(C(C)C)s3)Oc3cc(-c4cnc([C@@H]5CCCN5C(=O)[C@@H](NC(=O)OC)C(C)C)[nH]4)cc(F)c3-2)[nH]1)C1CCOC(C)(C)C1` (single isomer, unassigned) [Compound 63], for which the concentration for half-maximal inhibition (IC50) amounted to 0.0483 nM in test [1]; 0.254 nM in test [2] (setting [4]); 1.67 nM in test [3] (read-out: 2B IC50, replicon 2B).

For `COC(=O)NC(C(=O)N1[C@@H]2C[C@@H]2C[C@H]1c1ncc(-c2ccc3c(c2)cc2n3C(c3ncc(C4CC4)s3)Oc3cc(-c4cnc([C@@H]5CCCN5C(=O)[C@@H](NC(=O)OC)C(C)C)[nH]4)cc(F)c3-2)[nH]1)C1C[C@@H](C)O[C@@H](C)C1` (single isomer, unassigned) [Compound 64], the IC50 amounted to 0.0012 nM in test [1] (Hepatitis C virus); 0.159 nM in test [2] (setting [4]); 0.268 nM in test [3] (read-out: 2B IC50, replicon 2B).

Turning to `COC(=O)NC(C(=O)N1[C@@H]2C[C@@H]2C[C@H]1c1ncc(-c2ccc3c(c2)cc2n3C(c3cnc(C(C)C)s3)Oc3cc(-c4cnc([C@@H]5CCCN5C(=O)[C@@H](NC(=O)OC)C(C)C)[nH]4)cc(F)c3-2)[nH]1)C1CCOC(C)(C)C1` (single isomer, unassigned) [Compound 68], the results for the IC50 in test [1], in test [2] (setting [4]) and in test [3] (setting [5]) were 0.0014 nM, 0.0996 nM and 0.253 nM, respectively.

For the compound `COC(=O)NC(C(=O)N1CCC[C@H]1c1ncc(-c2ccc3c(c2)cc2n3C(c3nc(C(F)(F)F)cs3)Oc3cc(-c4cnc([C@@H]5CCCN5C(=O)[C@@H](NC(=O)OC)C(C)C)[nH]4)cc(F)c3-2)[nH]1)C1C[C@@H](C)O[C@@H](C)C1` (single isomer, unassigned) [Compound 75], the IC50 in test [1] (Hepatitis C virus) turned out to be 0.0022 nM; in test [2] (setting [4]), 0.875 nM; in test [3] (read-out: 2B IC50, replicon 2B), 0.491 nM.

As for `COC(=O)NC(C(=O)N1CCC[C@H]1c1ncc(-c2ccc3c(c2)cc2n3C(c3cnc(-c4ccc(F)cc4)s3)Oc3cc(-c4cnc([C@@H]5CCCN5C(=O)[C@@H](NC(=O)OC)C(C)C)[nH]4)cc(F)c3-2)[nH]1)C1C[C@@H](C)O[C@@H](C)C1` (single isomer, unassigned) [Compound 80], the IC50 in test [1] (Hepatitis C virus) is 0.0015 nM; in test [2] (setting [4]), 0.0504 nM; in test [3] (read-out: 2B IC50, replicon 2B), 0.047 nM.

`CCc1ncc(C2Oc3cc(-c4cnc([C@@H]5CCCN5C(=O)[C@@H](NC(=O)OC)C(C)C)[nH]4)cc(F)c3-c3cc4cc(-c5cnc([C@@H]6CCCN6C(=O)[C@@H](NC(=O)OC)C(C)C)[nH]5)ccc4n32)s1` (single isomer, unassigned) [Compound 82]: the IC50 came out at 0.0023 nM in test [1]; 1.58 nM in test [2] (setting [4]); 1.1 nM in test [3] (read-out: 2B IC50, replicon 2B).

`CCc1ncc(C2Oc3cc(-c4cnc([C@@H]5CCCN5C(=O)[C@@H](NC(=O)OC)C(C)C)[nH]4)cc(F)c3-c3cc4cc(-c5cnc([C@@H]6C[C@H]7C[C@H]7N6C(=O)[C@@H](CC(=O)OC)C(C)C)[nH]5)ccc4n32)s1` (single isomer, unassigned) [Compound 84]: the IC50 came to 0.0037 nM in test [1]; 0.0708 nM in test [2] (setting [4]); 0.425 nM in test [3] (read-out: 2B IC50, replicon 2B).

Take `CCCc1ncc(C2Oc3cc(-c4cnc([C@@H]5CCCN5C(=O)[C@@H](NC(=O)OC)C(C)C)[nH]4)cc(F)c3-c3cc4cc(-c5cnc([C@@H]6C[C@H]7C[C@H]7N6C(=O)[C@@H](NC(=O)OC)C(C)C)[nH]5)ccc4n32)s1` (single isomer, unassigned) [Compound 91]: the IC50 turned out to be 0.0021 nM in test [1]; 0.0537 nM in test [2] (setting [4]); 0.17 nM in test [3] (read-out: 2B IC50, replicon 2B).

With `COC(=O)N[C@H](C(=O)N1CCC[C@H]1c1ncc(-c2cc(F)c3c(c2)OC(c2cnc(-c4ccc(F)cc4F)s2)n2c-3cc3cc(-c4cnc([C@@H]5CCCN5C(=O)[C@@H](NC(=O)OC)C(C)C)[nH]4)ccc32)[nH]1)C(C)C` (single isomer, unassigned) [Compound 99], the IC50 is 0.0016 nM in test [1]; 0.26 nM in test [2] (setting [4]); 0.1 nM in test [3] (read-out: 2B IC50, replicon 2B).

Turning to `COC(=O)NC(C(=O)N1[C@@H]2C[C@@H]2C[C@H]1c1ncc(-c2ccc3c(c2)c(F)c2n3C(c3cnc(C4CC4)s3)Oc3cc(-c4cnc([C@@H]5CCCN5C(=O)[C@@H](NC(=O)OC)C(C)C)[nH]4)cc(F)c3-2)[nH]1)C1CCOC(C)(C)C1` (single isomer, unassigned) [Compound 113], the IC50 in test [1] was determined as 0.002 nM; in test [2] (setting [4]), 0.678 nM; in test [3] (read-out: 2B IC50, replicon 2B) it was 0.176 nM.

In the case of `CCCc1ncc(C2Oc3cc(-c4cnc([C@@H]5CCCN5C(=O)[C@@H](NC(=O)OC)C(C)C)[nH]4)cc(C)c3-c3cc4cc(-c5cnc([C@@H]6C[C@H]7C[C@H]7N6C(=O)[C@@H](NC(=O)OC)C(C)C)[nH]5)ccc4n32)s1` (single isomer, unassigned) [Compound 205], the IC50 turned out to be 0.006 nM in test [1] (Hepatitis C virus); 2.46 nM in test [2] (setting [4]); 0.57 nM in test [3] (read-out: 2B IC50, replicon 2B).

For `COC(=O)N[C@H](C(=O)N1CCC[C@H]1c1ncc(-c2cc(C)c3c(c2)OC(c2cnc(C4CC4)s2)n2c-3cc3cc(-c4cnc([C@@H]5C[C@H]6C[C@H]6N5C(=O)[C@@H](NC(=O)OC)C(C)(C)F)[nH]4)ccc32)[nH]1)C(C)C` (single isomer, unassigned) [Compound 209], the IC50 came out at 0.003 nM in test [1]; 0.197 nM in test [2] (setting [4]); 0.155 nM in test [3] (read-out: 2B IC50, replicon 2B).

`COC(=O)NC(C(=O)N1CCC[C@H]1c1ncc(-c2ccc3c(c2)cc2n3C(c3cnc(C4CC4)s3)Oc3cc(-c4cnc([C@@H]5CCCN5C(=O)[C@@H](NC(=O)OC)C(C)C)[nH]4)cc(C)c3-2)[nH]1)C1C[C@@H](C)O[C@@H](C)C1` (single isomer, unassigned) [Compound 215]: the IC50 in test [1] (Hepatitis C virus) is 0.0024 nM; in test [2] (setting [6]), 0.828 nM; in test [3] (setting [5]), 0.09 nM.

On to `COC(=O)NC(C(=O)N1CCC[C@H]1c1ncc(-c2ccc3c(c2)cc2n3C(c3cnc(C4CCC4)s3)Oc3cc(-c4cnc([C@@H]5CCCN5C(=O)[C@@H](NC(=O)OC)C(C)C)[nH]4)cc(C)c3-2)[nH]1)C1C[C@@H](C)O[C@@H](C)C1` (single isomer, unassigned) [Compound 218], for which the IC50 in test [1] (Hepatitis C virus) came to 0.002 nM; in test [2] (setting [4]), 0.12 nM; in test [3] (read-out: 2B IC50, replicon 2B), 0.035 nM.

Take `COC(=O)NC(C(=O)N1[C@@H]2C[C@@H]2C[C@H]1c1ncc(-c2ccc3c(c2)cc2n3C(c3cnc(C4CCC4)s3)Oc3cc(-c4cnc([C@@H]5CCCN5C(=O)[C@@H](NC(=O)OC)C(C)C)[nH]4)cc(C)c3-2)[nH]1)C(C)(C)F` (single isomer, unassigned) [Compound 224]: the values for the IC50 in test [1] (Hepatitis C virus), in test [2] (setting [6]) and in test [3] (setting [5]) were 0.0027 nM, 0.462 nM and 0.204 nM, respectively.

Take `COC(=O)NC(C(=O)N1CCC[C@H]1c1ncc(-c2ccc3c(c2)cc2n3C(c3cnc(C4CC4)s3)Oc3cc(-c4cnc([C@@H]5CCCN5C(=O)[C@@H](NC(=O)OC)C(C)C)[nH]4)cc(F)c3-2)[nH]1)C1C[C@@H](C)O[C@@H](C)C1` (single isomer, unassigned) [Compound 306]: the IC50 in test [1] (Hepatitis C virus) was 0.003 nM; in test [2] (setting [4]), 0.244 nM; in test [3] (read-out: 2B IC50, replicon 2B), 0.145 nM.

With `COC(=O)NC(C(=O)N1[C@@H]2C[C@@H]2C[C@H]1c1ncc(-c2ccc3c(c2)cc2n3C(c3cnc(C(C)(C)C)s3)Oc3cc(-c4cnc([C@@H]5CCCN5C(=O)[C@@H](NC(=O)OC)C(C)C)[nH]4)cc(F)c3-2)[nH]1)C(C)C` (single isomer, unassigned) [Compound 323], the IC50 in test [1] (Hepatitis C virus) was determined as 0.0032 nM; in test [2] (setting [4]), 0.0051 nM; in test [3] (read-out: 2B IC50, replicon 2B) it was 0.078 nM.

Consider `COC(=O)NC(C(=O)N1[C@@H]2C[C@@H]2C[C@H]1c1ncc(-c2ccc3c(c2)cc2n3C(c3cnc(C(C)(C)C)s3)Oc3cc(-c4cnc([C@@H]5CCCN5C(=O)[C@@H](NC(=O)OC)C(C)C)[nH]4)cc(F)c3-2)[nH]1)C(C)C` (single isomer, unassigned) [Compound 324], for which the IC50 in test [1] was determined as 0.002 nM; in test [2] (setting [4]) it was 0.263 nM; in test [3] (read-out: 2B IC50, replicon 2B), 1.67 nM.

Consider `COC(=O)NC(C(=O)N1[C@@H]2C[C@@H]2C[C@H]1c1ncc(-c2ccc3c(c2)cc2n3C(c3cnc(C4CCCC4)s3)Oc3cc(-c4cnc([C@@H]5CCCN5C(=O)[C@@H](NC(=O)OC)C(C)C)[nH]4)cc(F)c3-2)[nH]1)C(C)(C)F` (single isomer, unassigned) [Compound 327], for which the IC50 was found to be 0.0012 nM in test [1] (Hepatitis C virus); 0.002 nM in test [2] (setting [4]); 0.011 nM in test [3] (read-out: 2B IC50, replicon 2B).

For `COC(=O)NC(C(=O)N1[C@@H]2C[C@@H]2C[C@H]1c1ncc(-c2ccc3c(c2)cc2n3C(c3cnc(C4CCCC4)s3)Oc3cc(-c4cnc([C@@H]5CCCN5C(=O)[C@@H](NC(=O)OC)C(C)C)[nH]4)cc(F)c3-2)[nH]1)C(C)(C)F` (single isomer, unassigned) [Compound 328], the IC50 came to 0.0015 nM in test [1]; 0.0463 nM in test [2] (setting [4]); 0.163 nM in test [3] (read-out: 2B IC50, replicon 2B).
